Tested on: HIV
Experiment: Assay for inhibition of HIV replication (spread assay; acute HIV infection of T-lymphoid cells)
Assay type: cell-based
Settings: Human immunodeficiency virus 1, tested up to 1 micromolar
Protocol: Assay for Inhibition of HIV Replication
Assays for the inhibition of acute HIV infection of T-lymphoid cells were conducted in accordance with Vacca, J. P. et al., Proc. Natl. Acad. Sci. USA 1994, 91: 4096. […] The compounds of Examples 6, 8, 9, 14, 15, 21-23 and 29-35 were also tested in the spread assay up to 1 micromolar, but specific IC95 values were not obtained; i.e., the IC95 values for these compounds are greater than 1 micromolar.

O=C(NCc1ccc(F)cc1)c1nc2ccc(Br)cn2c(=O)c1O [Example 35, 7-bromo-N-(4-fluorobenzy1)-3-hydroxy-4-oxo-4H-pyrido[1,2-a]pyrimidine-2-carboxamide] was tested, and the IC95 was > 1000 nM.

Reference: patent US7939537B2, “HIV integrase inhibitors” (Istituto Di Ricerche Di Biologia Molecolare P. Angeletti …, priority 2006, dated 2011)
